For assay [1], the target named is fungal (fACC2) (UniProt Q00955). The settings on record: read-out: fACC2 (in vitro ACC2 Inhibition Assay, IC50); Table 2b, additional results; ADP-Glo, 5 nM ACC2, 20 μM ATP, 20 μM acetyl-CoA. (ADP-Glo turns the ADP formed in a reaction into a luminescent signal.)
Assay [2] deals with Septoria tritici (St). Kind of assay: Growth inhibition assay of fungal pathogens, St. The settings on record: Zymoseptoria tritici, 48 h, Septoria tritici; growth inhibition at 48 hours vs 2% DMSO control; read-out: Concentration at 90% Inhibition St. The assay is classed as cell-based. The method in brief:
(§1)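 Spores diluted in 17% V8 liquid media and incubated with compound at final 50, 10, 2 ppm or 2, 0.4, 0.08 ppm (2% DMSO). OD600 plus visual ratings at 24 and 48 hours, blank-subtracted; percent growth inhibition from 48 h readings relative to 2% DMSO control.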

In assay [3] the test system is Botrtyis cinerea (Bc). Nature of the assay: Growth inhibition assay of fungal pathogens, Bc. The assay is classed as cell-based. The settings on record: 48 h, Botrtyis cinerea; growth inhibition at 48 hours vs 2% DMSO control; read-out: Concentration at 90% Inhibition Bc. An outline of the steps: as §1
Assay [4] concerns the target human (hACC2) (Homo sapiens, UniProt O00763). Nature of the assay: In vitro ACC inhibition assay (ADP-Glo), hACC2. The format is biochemical. The settings on record: Table 2b, additional results, 5 nM ACC2, 20 μM ATP, 20 μM acetyl-CoA. The method, then: The detailed procedure is as follows. […] 10 μL ADP glo reagent was added. […] 20 μL kinase detection reagent was added.

The subject of assay [5] is Phytophthora capsici (Pc). Nature of the assay: Growth inhibition assay of fungal pathogens, Pc. The assay is classed as cell-based. The settings on record: 48 h, growth inhibition at 48 hours vs 2% DMSO control, read-out: Concentration at 90% Inhibition Pc. An outline of the steps:
as §1

Assay [6] concerns Rhizoctonia solani (Rs). Kind of assay: Growth inhibition assay of fungal pathogens, Rs. The format is cell-based. Conditions: 48 h, mycelial plugs, growth inhibition at 48 hours vs 2% DMSO control, read-out: Concentration at 90% Inhibition Rs.
Assay [7] has as its system Fusarium moniliforme (Fm). Kind of assay: Growth inhibition assay of fungal pathogens, Fm. The format is cell-based. Conditions: Fusarium verticillioides, 48 h, Fusarium moniliforme; growth inhibition at 48 hours vs 2% DMSO control; read-out: Concentration at 90% Inhibition Fm. The method in brief:
as §1

Assay [8] deals with C. krusei. Nature of the assay: Antifungal Activity Assay (broth microtiter MIC), C. krusei. The format is cell-based, Candida krusei. Conditions: Pichia kudriavzevii, ATCC6258, 48 h, Table 3b (additional results); ATCC 6258; 3 replicates; MIC recorded at 48 h; read-out: MIC, C. krusei ATCC 6258. The method in brief:
(§2)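 MIC read by eye at 48 h, comparing challenged wells with the growth control. Yeasts grown overnight on Sabouraud dextrose agar at 35° C, suspended in RPMI 1640+MOPS and added at 2.5×10^3 CFU/mL final, following CLSI M27-A3.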

Assay [9] relates to C. parapsilosis. Kind of assay: Antifungal Activity Assay (broth microtiter MIC), C. parapsilosis. The format is cell-based, Candida parapsilosis. Conditions: Lodderomyces parapsilosis, ATCC22019, 48 h, Table 3b (additional results); ATCC 22019; 3 replicates; MIC recorded at 48 h; read-out: MIC, C. parapsilosis ATCC 22019. An outline of the steps: as §2
Assay [10] deals with C. albicans. Nature of the assay: Antifungal Activity Assay (broth microtiter MIC), C. albicans. The assay is classed as cell-based, Candida albicans. The settings on record: Candida albicans, ATCC90028, 48 h, Table 3b (additional results); ATCC 90028; 3 replicates; MIC recorded at 48 h; read-out: MIC, C. albicans ATCC 90028. The method in brief:
as §2

Assay [11] has as its system Fusarium virguliforme (Fv). Nature of the assay: Growth inhibition assay of fungal pathogens, Fv. The format is cell-based. Conditions: 48 h, growth inhibition at 48 hours vs 2% DMSO control, read-out: Concentration at 90% Inhibition Fv. The method in brief: as §1
Assay [12] relates to Collectotrichum graminicola (Cg). Kind of assay: Growth inhibition assay of fungal pathogens, Cg. The format is cell-based. The settings on record: 48 h, Collectotrichum graminicola; growth inhibition at 48 hours vs 2% DMSO control; read-out: Concentration at 90% Inhibition Cg. The method in brief:
as §1

In assay [13] the test system is Diplodia maydis (Dm). Nature of the assay: Growth inhibition assay of fungal pathogens, Dm. The assay is classed as cell-based. Conditions: Stenocarpella maydis, 48 h, Diplodia maydis; growth inhibition at 48 hours vs 2% DMSO control; read-out: Concentration at 90% Inhibition Dm. The method in brief:
as §1

What is called IC50 is the concentration needed to halve the response being measured. Broadly, the MIC is the lowest concentration that inhibits growth of the organism.

In brackets after ≈: the same amount, converted by molar mass.

human (hACC2), sequence (O00763 whole entry): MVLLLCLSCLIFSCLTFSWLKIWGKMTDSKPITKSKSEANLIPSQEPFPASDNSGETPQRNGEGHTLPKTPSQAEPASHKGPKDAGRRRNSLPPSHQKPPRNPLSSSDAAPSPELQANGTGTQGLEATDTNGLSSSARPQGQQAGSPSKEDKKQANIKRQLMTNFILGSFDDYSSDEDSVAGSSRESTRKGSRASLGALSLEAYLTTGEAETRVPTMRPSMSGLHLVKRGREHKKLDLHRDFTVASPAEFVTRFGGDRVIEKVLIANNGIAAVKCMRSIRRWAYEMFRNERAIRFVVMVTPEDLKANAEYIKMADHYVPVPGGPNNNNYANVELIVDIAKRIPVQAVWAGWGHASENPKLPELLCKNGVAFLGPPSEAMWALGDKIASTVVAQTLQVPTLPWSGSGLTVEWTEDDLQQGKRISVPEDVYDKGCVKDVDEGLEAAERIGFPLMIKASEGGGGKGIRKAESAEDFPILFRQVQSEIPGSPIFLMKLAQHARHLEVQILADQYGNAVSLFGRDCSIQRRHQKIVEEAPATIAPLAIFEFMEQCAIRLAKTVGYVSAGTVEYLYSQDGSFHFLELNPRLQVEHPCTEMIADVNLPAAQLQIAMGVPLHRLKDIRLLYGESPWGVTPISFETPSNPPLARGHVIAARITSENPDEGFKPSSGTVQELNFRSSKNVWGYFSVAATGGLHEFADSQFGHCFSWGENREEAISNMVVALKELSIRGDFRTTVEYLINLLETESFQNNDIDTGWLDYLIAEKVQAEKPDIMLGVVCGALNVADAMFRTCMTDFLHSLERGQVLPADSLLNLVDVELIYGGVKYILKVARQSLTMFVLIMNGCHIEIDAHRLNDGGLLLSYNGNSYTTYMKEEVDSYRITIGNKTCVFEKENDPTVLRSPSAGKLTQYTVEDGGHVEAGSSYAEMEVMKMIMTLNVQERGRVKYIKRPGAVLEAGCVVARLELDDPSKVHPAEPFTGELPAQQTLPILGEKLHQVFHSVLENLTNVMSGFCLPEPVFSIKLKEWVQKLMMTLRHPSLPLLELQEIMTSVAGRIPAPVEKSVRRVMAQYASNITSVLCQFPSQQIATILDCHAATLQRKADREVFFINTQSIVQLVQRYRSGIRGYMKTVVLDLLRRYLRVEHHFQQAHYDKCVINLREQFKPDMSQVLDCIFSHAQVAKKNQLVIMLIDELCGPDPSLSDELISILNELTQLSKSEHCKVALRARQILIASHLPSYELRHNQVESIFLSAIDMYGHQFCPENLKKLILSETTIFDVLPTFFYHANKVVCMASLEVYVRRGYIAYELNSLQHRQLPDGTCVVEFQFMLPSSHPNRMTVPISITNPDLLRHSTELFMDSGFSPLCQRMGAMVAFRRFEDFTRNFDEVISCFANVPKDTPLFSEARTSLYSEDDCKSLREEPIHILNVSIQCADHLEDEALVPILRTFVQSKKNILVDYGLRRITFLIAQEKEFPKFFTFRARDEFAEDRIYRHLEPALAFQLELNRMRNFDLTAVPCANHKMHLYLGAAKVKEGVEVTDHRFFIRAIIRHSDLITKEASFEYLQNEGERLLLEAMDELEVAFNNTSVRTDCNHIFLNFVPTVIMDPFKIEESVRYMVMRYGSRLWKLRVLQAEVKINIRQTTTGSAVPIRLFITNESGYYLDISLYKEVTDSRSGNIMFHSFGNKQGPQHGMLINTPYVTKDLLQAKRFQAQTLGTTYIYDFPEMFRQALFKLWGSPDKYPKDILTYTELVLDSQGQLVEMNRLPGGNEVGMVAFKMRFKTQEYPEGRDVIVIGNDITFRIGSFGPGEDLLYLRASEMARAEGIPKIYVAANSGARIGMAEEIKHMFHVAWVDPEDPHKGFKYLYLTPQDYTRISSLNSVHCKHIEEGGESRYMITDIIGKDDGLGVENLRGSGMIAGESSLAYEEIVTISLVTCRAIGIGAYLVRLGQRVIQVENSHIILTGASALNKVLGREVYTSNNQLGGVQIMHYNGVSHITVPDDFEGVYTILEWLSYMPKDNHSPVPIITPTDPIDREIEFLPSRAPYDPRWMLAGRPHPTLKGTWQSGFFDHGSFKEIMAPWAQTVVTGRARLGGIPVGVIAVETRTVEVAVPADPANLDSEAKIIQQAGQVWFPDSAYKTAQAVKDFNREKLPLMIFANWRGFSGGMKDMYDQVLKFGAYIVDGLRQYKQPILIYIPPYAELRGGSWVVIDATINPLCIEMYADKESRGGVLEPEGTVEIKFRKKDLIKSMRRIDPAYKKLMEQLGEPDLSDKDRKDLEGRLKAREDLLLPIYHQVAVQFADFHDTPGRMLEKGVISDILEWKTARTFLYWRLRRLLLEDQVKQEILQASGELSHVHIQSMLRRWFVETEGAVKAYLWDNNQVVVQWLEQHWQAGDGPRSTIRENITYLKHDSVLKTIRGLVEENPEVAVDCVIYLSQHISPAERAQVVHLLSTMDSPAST
fungal (fACC2), sequence (Q00955 whole entry): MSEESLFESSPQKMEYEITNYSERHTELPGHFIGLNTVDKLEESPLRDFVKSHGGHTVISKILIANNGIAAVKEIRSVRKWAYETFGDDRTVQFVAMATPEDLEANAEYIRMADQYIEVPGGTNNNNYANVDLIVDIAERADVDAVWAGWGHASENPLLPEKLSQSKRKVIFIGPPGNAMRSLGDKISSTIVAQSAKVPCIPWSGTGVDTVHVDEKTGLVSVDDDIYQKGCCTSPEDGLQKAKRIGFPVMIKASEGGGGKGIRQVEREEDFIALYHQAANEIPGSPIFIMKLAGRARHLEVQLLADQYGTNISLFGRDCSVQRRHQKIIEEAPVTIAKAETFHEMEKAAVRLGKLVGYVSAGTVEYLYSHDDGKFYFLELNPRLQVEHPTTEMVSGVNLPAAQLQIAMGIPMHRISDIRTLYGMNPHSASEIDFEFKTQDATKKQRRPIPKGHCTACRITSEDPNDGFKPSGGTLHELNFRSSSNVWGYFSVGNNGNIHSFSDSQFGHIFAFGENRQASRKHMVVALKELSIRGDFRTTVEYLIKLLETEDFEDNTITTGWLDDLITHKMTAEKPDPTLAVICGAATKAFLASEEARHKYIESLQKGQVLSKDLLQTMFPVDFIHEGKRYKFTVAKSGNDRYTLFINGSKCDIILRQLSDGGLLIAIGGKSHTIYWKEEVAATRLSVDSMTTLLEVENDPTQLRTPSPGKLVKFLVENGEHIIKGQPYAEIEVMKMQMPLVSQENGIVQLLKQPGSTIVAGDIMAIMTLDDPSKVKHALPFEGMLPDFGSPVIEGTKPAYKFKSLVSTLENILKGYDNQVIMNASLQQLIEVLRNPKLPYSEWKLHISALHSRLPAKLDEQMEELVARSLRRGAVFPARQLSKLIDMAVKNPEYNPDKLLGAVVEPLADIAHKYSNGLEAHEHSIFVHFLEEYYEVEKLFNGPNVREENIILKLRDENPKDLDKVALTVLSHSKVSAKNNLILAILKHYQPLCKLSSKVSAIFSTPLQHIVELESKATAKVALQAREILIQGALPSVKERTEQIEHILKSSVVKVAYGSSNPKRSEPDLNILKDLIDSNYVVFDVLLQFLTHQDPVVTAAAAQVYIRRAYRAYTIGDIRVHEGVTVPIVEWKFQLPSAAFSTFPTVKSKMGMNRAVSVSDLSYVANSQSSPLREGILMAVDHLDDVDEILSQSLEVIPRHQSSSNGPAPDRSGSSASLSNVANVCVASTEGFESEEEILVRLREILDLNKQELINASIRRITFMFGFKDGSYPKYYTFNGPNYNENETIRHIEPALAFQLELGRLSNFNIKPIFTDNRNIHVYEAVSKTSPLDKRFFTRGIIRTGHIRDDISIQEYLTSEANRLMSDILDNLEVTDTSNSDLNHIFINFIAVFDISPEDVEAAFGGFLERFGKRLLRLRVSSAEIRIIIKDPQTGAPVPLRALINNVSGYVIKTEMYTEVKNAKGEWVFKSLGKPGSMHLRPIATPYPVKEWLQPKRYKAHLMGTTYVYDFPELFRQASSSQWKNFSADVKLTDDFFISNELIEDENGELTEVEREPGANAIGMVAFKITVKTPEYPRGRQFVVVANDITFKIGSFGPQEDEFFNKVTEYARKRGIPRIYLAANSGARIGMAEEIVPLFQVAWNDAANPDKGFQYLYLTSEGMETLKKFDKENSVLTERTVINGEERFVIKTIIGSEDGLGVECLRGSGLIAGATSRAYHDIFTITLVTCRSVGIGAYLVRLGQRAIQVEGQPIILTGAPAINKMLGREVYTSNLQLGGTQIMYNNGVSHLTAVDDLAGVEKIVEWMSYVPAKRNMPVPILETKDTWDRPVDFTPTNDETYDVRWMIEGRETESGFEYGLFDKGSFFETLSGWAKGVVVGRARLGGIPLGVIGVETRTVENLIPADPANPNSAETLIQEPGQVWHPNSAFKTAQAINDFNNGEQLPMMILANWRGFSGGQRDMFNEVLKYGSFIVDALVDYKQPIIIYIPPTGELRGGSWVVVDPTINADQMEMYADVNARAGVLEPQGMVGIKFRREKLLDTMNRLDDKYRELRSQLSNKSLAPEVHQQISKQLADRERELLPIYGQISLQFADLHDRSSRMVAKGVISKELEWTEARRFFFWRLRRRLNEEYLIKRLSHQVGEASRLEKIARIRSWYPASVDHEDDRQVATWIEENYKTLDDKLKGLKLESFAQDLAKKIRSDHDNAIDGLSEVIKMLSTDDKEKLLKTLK

Turning to `CCc1ccc(F)cc1[C@H](Cn1c(=O)n(C(C)(C)C(=O)NC(C)C)c(=O)c2c(C)c(-n3nccn3)sc21)OCC(C)(C)C#N` [Compound I-238], the IC50 in [1] was 1 to 5 nM; in assay [4], 5 to 10 nM. Also, the IC90 in assay [2] is more than 50 µg/mL; in assay [3] it was 0.08 µg/mL (≈ 0.128 µM); in [5] it was more than 50 µg/mL; in assay [6], 0.08 µg/mL (≈ 0.128 µM); in [7], 0.08 µg/mL (≈ 0.128 µM); in assay [11], 0.08 µg/mL (≈ 0.128 µM). Further, the values for the IC90 in assay [12] and in [13] were 0.08 µg/mL (≈ 0.128 µM) and 2 µg/mL (≈ 3.21 µM), respectively. For the same compound, the MIC was more than 4.01 µg/mL in assay [8], 2.01 to 4 µg/mL (≈ 3.22 to 6.41 µM) in [9] and 1.01 to 2 µg/mL (≈ 1.62 to 3.21 µM) in [10].

Consider `COc1ccc(F)cc1[C@H](Cn1c(=O)n(C(C)(C)C(=O)NC(C)C)c(=O)c2c(C)c(-n3nccn3)sc21)O[C@H]1C[C@@H](O)C1` [Compound I-239], for which the half-inhibitory concentration (IC50) was 1 to 5 nM in [1] and 10 to 40 nM in assay [4]. The IC90 was more than 50 µg/mL in assay [2]; 2 µg/mL (≈ 3.25 µM) in [3]; more than 50 µg/mL in [5]; 0.08 µg/mL (≈ 0.13 µM) in assay [6]; 0.08 µg/mL (≈ 0.13 µM) in assay [7]; 0.4 µg/mL (≈ 0.651 µM) in assay [11]. For the same compound, the IC90 in assay [12] and in assay [13] was 2 µg/mL (≈ 3.25 µM) each time. Also, the MIC in assay [8], in [9] and in assay [10] was 0.25 to 1 µg/mL (≈ 0.407 to 1.63 µM) throughout.

As to `CCc1ccc(F)cc1[C@@H](Cn1c(=O)n(C(C)(C)C(=O)NC(C)C)c(=O)c2c(C)c(-n3nccn3)sc21)OC[C@H](C)C#N` [Compound I-245], the IC50 was in the range of 0.3 to 1 nM in [1] and 1 to 5 nM in [4]. The IC90 was more than 50 µg/mL in assay [2]; 0.08 µg/mL (≈ 0.131 µM) in [3]; more than 50 µg/mL in assay [5]; 0.08 µg/mL (≈ 0.131 µM) in assay [6]; 0.08 µg/mL (≈ 0.131 µM) in assay [7]; 0.08 µg/mL (≈ 0.131 µM) in [11]. Moreover, the IC90 is 0.08 µg/mL (≈ 0.131 µM) in [12] and 2 µg/mL (≈ 3.28 µM) in [13]. The minimal inhibitory concentration (MIC) in assay [8] was more than 4.01 µg/mL; in assay [9] it was 2.01 to 4 µg/mL (≈ 3.3 to 6.56 µM); in [10] it was 2.01 to 4 µg/mL (≈ 3.3 to 6.56 µM).

Take `Cc1c(-n2nccn2)sc2c1c(=O)n(C(C)(C)C(=O)NC(C)C)c(=O)n2C[C@H](OCCC#N)c1cc(F)ccc1O` [Compound I-246]: the 50% inhibitory concentration (IC50) was in the range of 0.3 to 1 nM in assay [1] and 1 to 5 nM in assay [4]. In addition, the IC90 in assay [2] was more than 50 µg/mL; in assay [3], 2 µg/mL (≈ 3.43 µM); in assay [5] it was 10 µg/mL (≈ 17.1 µM); in assay [6], 0.4 µg/mL (≈ 0.685 µM); in [7], 0.4 µg/mL (≈ 0.685 µM); in assay [11] it was 2 µg/mL (≈ 3.43 µM). Moreover, the results for the IC90 in assay [12] and in [13] were 2 µg/mL (≈ 3.43 µM) and 10 µg/mL (≈ 17.1 µM), respectively. Also, the MIC in assay [8] was 2.01 to 4 µg/mL (≈ 3.44 to 6.85 µM); in [9], 2.01 to 4 µg/mL (≈ 3.44 to 6.85 µM); in [10], more than 4.01 µg/mL.

Regarding `CCc1ccc(F)cc1[C@@H](Cn1c(=O)n(C(C)(C)C(=O)NC(C)C)c(=O)c2c(C)c(-n3nccn3)sc21)OC[C@@H](C)C#N` [Compound I-247], the IC50 in assay [1] and in assay [4] was 1 to 5 nM in each case. Also, the IC90 is more than 50 µg/mL in assay [2]; 0.4 µg/mL (≈ 0.656 µM) in assay [3]; more than 50 µg/mL in [5]; 0.08 µg/mL (≈ 0.131 µM) in assay [6]; 0.08 µg/mL (≈ 0.131 µM) in assay [7]; 0.4 µg/mL (≈ 0.656 µM) in [11]. In addition, the IC90 stood at 0.08 µg/mL (≈ 0.131 µM) in assay [12] and 2 µg/mL (≈ 3.28 µM) in [13]. The figures for the MIC in assay [8], in [9] and in [10] were more than 4.01 µg/mL, 2.01 to 4 µg/mL (≈ 3.3 to 6.56 µM) and 2.01 to 4 µg/mL (≈ 3.3 to 6.56 µM), respectively.

Source of the values: patent US10800791B2, “Triazole ACC inhibitors and uses thereof” (Gilead Apollo, LLC, priority 2015, dated 2020).
